pIC50: −log10 of the molar value. Each block holds one molecule with its values, some of them ahead of it.
Test system: K86415-001-R-J1-PDC complex spheroids, viability
Test: Anticancer human tumor K86415-001-R-J1-PDC patient-derived lung adenocarcinoma cell line growth inhibition [RAS]
Conditions: for pIC50: curve of first compound; for viability, T/C: stronger effect = lower value
Method in brief: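 Agents were tested in combination matrices in half-log decrements from a top concentration at or near clinical Cmax (10 microM if undetermined). Targets were multi-cell spheroids of tumour lines plus HUVEC and MSC stromal cells.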

[1] = second compound 0.00316 µM, first compound 0.0316 µM
[2] = second compound 0.00316 µM, first compound 0.1 µM
[3] = second compound 0.00316 µM, first compound 0.316 µM
[4] = second compound 0.00316 µM, first compound 1 µM
[5] = second compound 0.00316 µM, first compound 3.16 µM
[6] = second compound 0.00316 µM, first compound 10 µM
[7] = second compound 0.01 µM, first compound 0.0316 µM
[8] = second compound 0.01 µM, first compound 0.1 µM
[9] = second compound 0.01 µM, first compound 0.316 µM
[10] = second compound 0.01 µM, first compound 1 µM
[11] = second compound 0.01 µM, first compound 3.16 µM
[12] = second compound 0.01 µM, first compound 10 µM
[13] = second compound 0.0316 µM, first compound 0.0316 µM
[14] = second compound 0.0316 µM, first compound 0.1 µM
[15] = second compound 0.0316 µM, first compound 0.316 µM
[16] = second compound 0.0316 µM, first compound 1 µM
[17] = second compound 0.0316 µM, first compound 3.16 µM
[18] = second compound 0.0316 µM, first compound 10 µM
[19] = second compound 0.1 µM, first compound 0.0316 µM
[20] = second compound 0.1 µM, first compound 0.1 µM
[21] = second compound 0.1 µM, first compound 0.316 µM
[22] = second compound 0.1 µM, first compound 1 µM
[23] = second compound 0.1 µM, first compound 3.16 µM
[24] = second compound 0.1 µM, first compound 10 µM
[25] = second compound 0.316 µM, first compound 0.0316 µM
[26] = second compound 0.316 µM, first compound 0.1 µM
[27] = second compound 0.316 µM, first compound 0.316 µM
[28] = second compound 0.316 µM, first compound 1 µM
[29] = second compound 0.316 µM, first compound 3.16 µM
[30] = second compound 0.316 µM, first compound 10 µM
[31] = second compound 1 µM, first compound 0.0316 µM
[32] = second compound 1 µM, first compound 0.1 µM
[33] = second compound 1 µM, first compound 0.316 µM
[34] = second compound 1 µM, first compound 1 µM
[35] = second compound 1 µM, first compound 3.16 µM
[36] = second compound 1 µM, first compound 10 µM
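Also: spheroids exposed to agents for seven days before readout.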

pIC50 (second compound 0.00316 µM): > 7.50
pIC50 (second compound 0.01 µM): > 7.50
pIC50 (second compound 0.0316 µM): > 7.50
pIC50 (second compound 0.1 µM): > 7.50
pIC50 (second compound 0.316 µM): > 7.50
pIC50 (second compound 1 µM): > 7.50
SMILES: CC(=O)OC12COC1CC(O)C1(C)C(=O)C(O)C3=C(C)C(OC(=O)C(O)C(NC(=O)OC(C)(C)C)c4ccccc4)CC(O)(C(OC(=O)c4ccccc4)C21)C3(C)C (stereo unspecified) + C=CC(=O)N1CCN(c2nc(OCC3CCCN3C)nc3c(F)c(-c4nc(N)cc(C)c4C(F)(F)F)c(Cl)cc23)C(C)C1
viability, T/C [1]: 15.6%
viability, T/C [2]: 15.6%
viability, T/C [3]: 16.5%
viability, T/C [4]: 15.9%
viability, T/C [5]: 15.5%
viability, T/C [6]: 15.2%
viability, T/C [7]: 13.9%
viability, T/C [8]: 14.1%
viability, T/C [9]: 12.5%
viability, T/C [10]: 13.2%
viability, T/C [11]: 10.8%
viability, T/C [12]: 9.16%
viability, T/C [13]: 11.1%
viability, T/C [14]: 10.8%
viability, T/C [15]: 9.94%
viability, T/C [16]: 9.79%
viability, T/C [17]: 10.3%
viability, T/C [18]: 8.13%
viability, T/C [19]: 9.79%
viability, T/C [20]: 11.2%
viability, T/C [21]: 9.84%
viability, T/C [22]: 9.57%
viability, T/C [23]: 11.5%
viability, T/C [24]: 9.04%
viability, T/C [25]: 7.89%
viability, T/C [26]: 9.45%
viability, T/C [27]: 11.5%
viability, T/C [28]: 9.36%
viability, T/C [29]: 10.3%
viability, T/C [30]: 8.4%
viability, T/C [31]: 8.13%
viability, T/C [32]: 10.6%
viability, T/C [33]: 12.8%
viability, T/C [34]: 9.39%
viability, T/C [35]: 11.2%
viability, T/C [36]: 10.5%

pIC50 (second compound 0.00316 µM): > 7.50
pIC50 (second compound 0.01 µM): > 7.50
pIC50 (second compound 0.0316 µM): > 7.50
pIC50 (second compound 0.1 µM): > 7.50
pIC50 (second compound 0.316 µM): > 7.50
pIC50 (second compound 1 µM): > 7.50
SMILES: NC1c2ccccc2OC12CCN(c1cnc3c(N4CCCc5ncccc54)n[nH]c3n1)CC2 (stereo unspecified) + C=CC(=O)N1CCN(c2nc(OCC3CCCN3C)nc3c(F)c(-c4nc(N)cc(C)c4C(F)(F)F)c(Cl)cc23)C(C)C1
viability, T/C [1]: 7.58%
viability, T/C [2]: 6.46%
viability, T/C [3]: 4.66%
viability, T/C [4]: 5.77%
viability, T/C [5]: 4.88%
viability, T/C [6]: 5.36%
viability, T/C [7]: 7.19%
viability, T/C [8]: 5.33%
viability, T/C [9]: 4.69%
viability, T/C [10]: 4.12%
viability, T/C [11]: 4.26%
viability, T/C [12]: 4.5%
viability, T/C [13]: 6.59%
viability, T/C [14]: 6.76%
viability, T/C [15]: 4.64%
viability, T/C [16]: 4.27%
viability, T/C [17]: 4.76%
viability, T/C [18]: 5.5%
viability, T/C [19]: 5.65%
viability, T/C [20]: 6.03%
viability, T/C [21]: 4.11%
viability, T/C [22]: 3.86%
viability, T/C [23]: 4.33%
viability, T/C [24]: 4.71%
viability, T/C [25]: 6.32%
viability, T/C [26]: 6.11%
viability, T/C [27]: 4.53%
viability, T/C [28]: 4.12%
viability, T/C [29]: 6.47%
viability, T/C [30]: 5.1%
viability, T/C [31]: 5.95%
viability, T/C [32]: 6.16%
viability, T/C [33]: 5%
viability, T/C [34]: 4.63%
viability, T/C [35]: 5.74%
viability, T/C [36]: 5.91%

pIC50 (second compound 0.00316 µM): > 8.50
pIC50 (second compound 0.01 µM): > 8.50
pIC50 (second compound 0.0316 µM): > 8.50
pIC50 (second compound 0.1 µM): > 8.50
pIC50 (second compound 0.316 µM): > 8.50
pIC50 (second compound 1 µM): > 8.50
SMILES: Nc1ccn(C2OC(CO)C(O)C2(F)F)c(=O)n1 (stereo unspecified) + C=CC(=O)N1CCN(c2nc(OCC3CCCN3C)nc3c(F)c(-c4nc(N)cc(C)c4C(F)(F)F)c(Cl)cc23)C(C)C1
viability, T/C (second compound 0.00316 µM, first compound 0.00316 µM): 18.1%
viability, T/C (second compound 0.00316 µM, first compound 0.01 µM): 16.6%
viability, T/C [1]: 14.9%
viability, T/C [2]: 14.7%
viability, T/C [3]: 17.8%
viability, T/C [4]: 17.2%
viability, T/C (second compound 0.01 µM, first compound 0.00316 µM): 16.1%
viability, T/C (second compound 0.01 µM, first compound 0.01 µM): 12.8%
viability, T/C [7]: 9.45%
viability, T/C [8]: 11.5%
viability, T/C [9]: 9.75%
viability, T/C [10]: 11.1%
viability, T/C (second compound 0.0316 µM, first compound 0.00316 µM): 11%
viability, T/C (second compound 0.0316 µM, first compound 0.01 µM): 12.7%
viability, T/C [13]: 10.5%
viability, T/C [14]: 9.28%
viability, T/C [15]: 11%
viability, T/C [16]: 10.4%
viability, T/C (second compound 0.1 µM, first compound 0.00316 µM): 9.91%
viability, T/C (second compound 0.1 µM, first compound 0.01 µM): 9.83%
viability, T/C [19]: 9.05%
viability, T/C [20]: 9.1%
viability, T/C [21]: 11.7%
viability, T/C [22]: 11.4%
viability, T/C (second compound 0.316 µM, first compound 0.00316 µM): 11%
viability, T/C (second compound 0.316 µM, first compound 0.01 µM): 10.5%
viability, T/C [25]: 11%
viability, T/C [26]: 8.77%
viability, T/C [27]: 11.1%
viability, T/C [28]: 8.63%
viability, T/C (second compound 1 µM, first compound 0.00316 µM): 10.2%
viability, T/C (second compound 1 µM, first compound 0.01 µM): 11.9%
viability, T/C [31]: 10.3%
viability, T/C [32]: 11.7%
viability, T/C [33]: 11.7%
viability, T/C [34]: 8.61%
